US20160137746A1, “METHODS FOR TREATING HIGH CARDIOVASCULAR RISK PATIENTS WITH HYPERCHOLESTEROLEMIA” (Sanofi Biotechnology, priority 2014, published 2016)

Assays:
[1] = system: high cardiovascular risk patients with hypercholesterolemia; conditions: in vivo
Protocol: Safety assessments during both studies were as follows. Safety was assessed through adverse event (AE) reporting (including adjudicated cardiovascular events), laboratory analyses, and vital signs measurement. Since the LDL-C-lowering effects of PCSK9 inhibition on top of a statin are unknown, a number of AEs were defined as being of special interest and were monitored, including alanine aminotransferase abnormalities, allergic events, hemolytic anemia, pregnancy, overdose with study drug, neurologic events, ophthalmic events, and local injection site reactions.
Safety Analyses were as follows. AEs (including adjudicated cardiovascular events), laboratory parameters, and vital signs were reported descriptively, based on the safety population (all randomized patients who received at least 1 dose or partial dose of study treatment). The safety analysis focused on the treatment-emergent AE period defined as the time from the first double-blind dose to the last double-blind dose of the investigational product +70 days (10 weeks).
(§1) The safety population included all randomized patients who received at least one dose or part of a dose of the double-blind IMP.
Safety analyses were descriptive, performed on the safety population according to treatment actually received. For analysis of TEAE and PCSA, the safety analysis focused on the TEAE period defined as the time from the first dose of double-blind IMP administration (capsule or injection, whichever comes first) up to 70 days after the last double-blind injection.

[2] = system: high cardiovascular risk patients with hypercholesterolemia; assay: ODYSSEY COMBO I: lipid efficacy of alirocumab vs placebo, add-on to maximally tolerated statin, 52 weeks; assay type: in vivo, human
Text: Each of the COMBO studies was randomized, double-blinded, and placebo-controlled.
The primary efficacy endpoint for each study was the difference between treatment arms in the percent change in LDL-C from baseline to Week 24.
Apo, apolipoprotein; HDL-C, high-density lipoprotein cholesterol; ITT, intent-to-treat; LDL-C, low-density lipoprotein cholesterol; Lp(a), lipoprotein (a); TG, triglycerides.
COMBO I was a Phase 3, randomized, double-blind, placebo-controlled, parallel-group, multicenter, 52-week study.
After randomization, patients entered a double-blind treatment period of 52 weeks. […] Patients randomized to placebo received a 1 ml SC placebo injection from an identical auto-injector.
To maintain blinding, the patient and investigator were not informed of the Week 8 LDL-C levels (or any lipid values after randomization); continuation or up-titration of dose occurred in an automated and blinded manner.
Primary analyses of efficacy endpoints were conducted using an ITT approach (based on the ITT population defined above), including all lipid data, regardless of whether the patient was continuing therapy or not. This corresponds to ITT estimands, defined for primary and key secondary endpoints. In addition, analyses were also conducted using an on-treatment approach (based on the mITT population defined above), including lipid data collected during the efficacy treatment period. This corresponds to on-treatment estimands of key secondary endpoints.
With regards to the primary efficacy analysis (ITT approach), the percent change in calculated LDL-C from baseline to Week 24 was analyzed using a mixed-effect model with repeated measures (MMRM) approach. All post-baseline data available from Week 4 to Week 52 analysis windows were used and missing data were accounted for by the MMRM.

[3] = system: high cardiovascular risk patients with hypercholesterolemia; conditions: in vivo; remark: listed apart in the source
Protocol: Safety parameters (adverse events [including adjudicated cardiovascular events], laboratory data, vital signs, and ECG) were assessed throughout the study.
Safety endpoints assessed in this trial were: cardiovascular events; allergic events; local tolerability at injection site; other adverse events (including hemolytic anemia); laboratory tests: urinalysis, hematology (red blood cell count, red blood cell distribution width (RDW), reticulocyte count, hemoglobin, hematocrit, platelets, white blood cell count with differential blood count), standard chemistry (sodium, potassium, chloride, bicarbonate, calcium, phosphorous, urea nitrogen, creatinine, uric acid, total protein, albumin, LDH, γ Glutamyl Transferase [γGT]), Vitamin E (alpha tocopherol) and other Fat Soluble Vitamins, cortisol (and reflexive ACTH levels, as needed, followed by ACTH stimulation test, as needed), Gonadal Hormone Assessments, Hepatitis C antibody, liver panel (ALT, AST, ALP, and total bilirubin), and CPK; vital signs including heart rate and blood pressure; and 12-lead ECG.
as §1
Safety analyses were descriptive, performed on the safety population according to treatment actually received. The safety analysis focused on the TEAE period defined as the time from the first dose of double-blind injection up to 70 days after the last double-blind injection. TEAE which developed, worsened or became serious or PCSA occurring after the patient's first injection in the open-label extension study (LTS13643) were not considered in the TEAE period. TEAE period was truncated at the common study cut-off date.

[4] = system: high cardiovascular risk patients with hypercholesterolemia; assay: ODYSSEY LONG TERM: lipid efficacy of alirocumab 150 mg Q2W vs placebo; assay type: in vivo, human; conditions: intention-to-treat, Week 78 (final analysis)
[5] = ITT, Week 24, listed as alirocumab
[6] = Week 24, 'Combo I: Overall Results' paragraph

Substance: Alirocumab: human anti-PCSK9 antibody; HCVR SEQ ID NO:1, LCVR SEQ ID NO:6; CDRs SEQ ID NOs 2/3/4/7/8/10
- TEAE preferred term: Upper respiratory tract infection [1]: 31 (6.5)
- TEAE system organ class: Infections and infestations [1]: 130 (27.1)
- Patients with automatic up-titration at Week 12 from 75 mg Q2W to 150 mg Q2W (Week 8 LDL-C ≧70 mg/dL) ([2]; 32 of 191 patients with at least one injection after Week 12): 16.8%
- Patients who reached LDL-C <70 mg/dL despite baseline LDL-C >190 mg/dL ([2]; 'Combo I: Overall Results' paragraph): 32%
- Calculated LDL-C change from baseline, LS mean ([2]; ITT, Week 4): -1.308 mmol/L
- Calculated LDL-C change from baseline, LS mean (SE) ([2]; ITT, Week 4): −50.5 (1.7) mg/dL
- Calculated LDL-C value, LS mean ([2]; ITT, Week 4): 1.327 mmol/L
- Calculated LDL-C value, LS mean (SE) ([2]; ITT, Week 4): 51.2 (1.7) mg/dL
- Calculated LDL-C, LS mean (SE) percent change from baseline ([2]; ITT, Week 4): −50.6 (1.7) %
- Calculated LDL-C change from baseline, LS mean ([2]; ITT, Week 8): -1.372 mmol/L
- Calculated LDL-C change from baseline, LS mean (SE) ([2]; ITT, Week 8): −53.0 (1.7) mg/dL
- Calculated LDL-C value, LS mean ([2]; ITT, Week 8): 1.264 mmol/L
- Calculated LDL-C value, LS mean (SE) ([2]; ITT, Week 8): 48.8 (1.7) mg/dL
- Calculated LDL-C, LS mean (SE) percent change from baseline ([2]; ITT, Week 8): −51.6 (1.7) %
- Apo-B percent change, LS mean difference vs placebo ([2]; ITT, Week 12): placebo of −38.2%
- Calculated LDL-C change from baseline, LS mean ([2]; ITT, Week 12): -1.207 mmol/L
- Calculated LDL-C change from baseline, LS mean (SE) ([2]; ITT, Week 12): −46.6 (2.0) mg/dL
- Calculated LDL-C percent change, LS mean difference vs placebo ([2]; ITT, Week 12): placebo of −47.4%
- Calculated LDL-C value, LS mean ([2]; ITT, Week 12): 1.428 mmol/L
- Calculated LDL-C value, LS mean (SE) ([2]; ITT, Week 12): 55.1 (2.0) mg/dL
- Non-HDL-C percent change, LS mean difference vs placebo ([2]; ITT, Week 12): placebo of −40.1%
- Total-C percent change, LS mean difference vs placebo ([2]; ITT, Week 12): placebo of −26.4%
- Calculated LDL-C, LS mean (SE) percent change from baseline ([2]; ITT, Week 12 (before possible up-titration)): −46.3 (1.8) %
- Calculated LDL-C, LS mean (SE) percent change from baseline ([2]; ITT, Week 12 (before possible up-titration), listed as alirocumab): −46.3%
- Calculated LDL-C percent change, LS mean difference vs placebo ([2]; ITT, Week 12, listed as alirocumab): −47.4%
- Calculated LDL-C change from baseline, LS mean ([2]; ITT, Week 16): -1.345 mmol/L
- Calculated LDL-C change from baseline, LS mean (SE) ([2]; ITT, Week 16): −51.9 (1.9) mg/dL
- Calculated LDL-C value, LS mean ([2]; ITT, Week 16): 1.291 mmol/L
- Calculated LDL-C value, LS mean (SE) ([2]; ITT, Week 16): 49.8 (1.9) mg/dL
- Calculated LDL-C, LS mean (SE) percent change from baseline ([2]; ITT, Week 16): −50.5 (1.9) %
- Apo-B percent change, LS mean difference vs placebo ([2]; ITT, Week 24): placebo of −35.8%
- Calculated LDL-C change from baseline, LS mean ([2]; ITT, Week 24): -1.303 mmol/L
- Calculated LDL-C change from baseline, LS mean (SE) ([2]; ITT, Week 24): −50.3 (2.0) mg/dL
- Calculated LDL-C percent change, LS mean difference (SE) vs placebo ([2]; ITT, Week 24): −45.9 (3.3) %
- Calculated LDL-C value, LS mean ([2]; ITT, Week 24): 1.332 mmol/L
- Calculated LDL-C value, LS mean (SE) ([2]; ITT, Week 24): 51.4 (2.0) mg/dL
- Calculated LDL-C, LS mean (SE) percent change from baseline ([2]; ITT, Week 24): −48.2 (1.9) %
- Calculated LDL-C, LS mean difference (SE) vs placebo, pattern-mixture-model sensitivity analysis ([2]; ITT, Week 24): −42.7 (3.7) %
- HDL-C percent change, LS mean difference vs placebo ([2]; ITT, Week 24): placebo of 7.3%
- Lp(a) percent change, combined estimate for adjusted mean difference vs placebo ([2]; ITT, Week 24): vs. placebo of −14.6%
- Non-HDL-C percent change, LS mean difference vs placebo ([2]; ITT, Week 24): placebo of −37.5%
- Total-C percent change, LS mean difference vs placebo ([2]; ITT, Week 24): placebo of −25%
- Calculated LDL-C percent change, LS mean difference (SE) vs placebo [2, 5]: −45.9%
- Calculated LDL-C, LS mean (SE) percent change from baseline [2, 5]: −48.2%
- Fasting TGs percent change, combined estimate for adjusted mean difference vs placebo ([2]; ITT, Week 24, not statistically significant (p 0.7597)): vs. placebo of −1.2%
- Calculated LDL-C change from baseline, LS mean ([2]; ITT, Week 36): -1.225 mmol/L
- Calculated LDL-C change from baseline, LS mean (SE) ([2]; ITT, Week 36): −47.3 (2.2) mg/dL
- Calculated LDL-C value, LS mean ([2]; ITT, Week 36): 1.411 mmol/L
- Calculated LDL-C value, LS mean (SE) ([2]; ITT, Week 36): 54.5 (2.2) mg/dL
- Calculated LDL-C, LS mean (SE) percent change from baseline ([2]; ITT, Week 36): −44.8 (2.5) %
- Calculated LDL-C change from baseline, LS mean ([2]; ITT, Week 52): -1.153 mmol/L
- Calculated LDL-C change from baseline, LS mean (SE) ([2]; ITT, Week 52): −44.5 (2.4) mg/dL
- Calculated LDL-C percent change, LS mean difference vs placebo ([2]; ITT, Week 52): placebo of −43%
- Calculated LDL-C value, LS mean ([2]; ITT, Week 52): 1.483 mmol/L
- Calculated LDL-C value, LS mean (SE) ([2]; ITT, Week 52): 57.2 (2.4) mg/dL
- Calculated LDL-C, LS mean (SE) percent change from baseline ([2]; ITT, Week 52): −42.5 (2.5) %
- Calculated LDL-C, LS mean (SE) percent change from baseline ([2]; ITT, Week 52, listed as alirocumab): −42.5%
- Calculated LDL-C percent change, LS mean difference vs placebo ([2]; On-treatment, Week 12): placebo of −49.3%
- Apo-B percent change, LS mean difference vs placebo ([2]; On-treatment, Week 24): placebo of −37.5%
- Calculated LDL-C percent change, LS mean difference (SE) vs placebo ([2]; On-treatment, Week 24): −49.9%
- Calculated LDL-C, LS mean (SE) percent change from baseline ([2]; On-treatment, Week 24): −50.7 (1.9) %
- Non-HDL-C percent change, LS mean difference vs placebo ([2]; On-treatment, Week 24): placebo of −40.4%
- Percent LDL-C reduction vs placebo within demographic and patient subgroups ([2]; Week 24, FIG. 5): seen at every level within each subgroup
- Absolute mean decrease from baseline in LDL-C [2, 6]: -90.8 mg/dL
- Patients who achieved LDL-C <100 mg/dL [2, 6]: 57%
- Change in triglyceride levels ([2]; baseline to Week 24): No significant change
- HDL-C percent change from baseline ([2]; baseline to Week 24): 3.5 (1.1) %
- Additional mean LDL-C reduction at week 24 compared with week 12 ([2]; patients with dose increase to 150 mg Q2W at week 12): 22.8%
- TEAE Lower respiratory tract infection (LRTI), % of patients [3]: 3.0% (46)
- TEAE Upper respiratory tract infection (URTI), % of patients [3]: 7.0% (109)
- TEAE Urinary tract infection, % of patients [3]: 5.2% (81)
- TEAEs by System-Organ-Class: Infections and infestations, % of patients [3]: 45.5% (705)
- Percent decrease in LDL cholesterol [4]: 52%
